Test results as given in US20090099195A1 (ASTRAZENECA AB, priority 2007, published 2009).

molecular target: T1, hP2X3 (human Purinergic P2X receptors subtype 3), clone B (Homo sapiens, UniProt P56373); assay: hP2X3 FLIPR calcium (Fluo-4) antagonist assay, clone B; settings: Human P2X3 FLIPR Clone B IC50 (nM), RLE cells expressing hP2X3 clone B (NM_002559); agonist 500 nM α,β-methylene-ATP
T1 sequence (P56373 1-397): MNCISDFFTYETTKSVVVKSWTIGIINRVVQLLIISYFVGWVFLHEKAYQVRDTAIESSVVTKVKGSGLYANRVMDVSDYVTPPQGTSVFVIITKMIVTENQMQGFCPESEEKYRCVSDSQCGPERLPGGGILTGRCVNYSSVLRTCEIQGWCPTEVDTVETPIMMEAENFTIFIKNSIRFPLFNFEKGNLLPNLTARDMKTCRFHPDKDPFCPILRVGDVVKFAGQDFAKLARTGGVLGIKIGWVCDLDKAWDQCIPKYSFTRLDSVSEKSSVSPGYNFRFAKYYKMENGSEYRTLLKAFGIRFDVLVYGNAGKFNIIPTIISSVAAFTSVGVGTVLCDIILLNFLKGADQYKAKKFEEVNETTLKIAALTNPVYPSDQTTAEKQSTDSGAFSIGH

Structure (SMILES) | IC50
CC(=O)N1CCN(c2nc(N[C@@H](C)c3ccc4ncccc4c3)c3c(n2)C(=O)N(C(C)C)C3)CC1 [Example 244, (S)-2-(4-acetylpiperazin-1-yl)-6-isopropyl-4-(1-(quinolin-6-yl)ethylamino)-5H-pyrrolo[3,4-d]pyrimidin-7(6H)-one] | 6500 nM
CC(=O)N1CCN(c2nc(NCc3ccc4ccccc4n3)c3c(n2)C(=O)N(C(C)C)C3)CC1 [Example 248, 2-(4-acetylpiperazin-1-yl)-6-isopropyl-4-(quinolin-2-ylmethylamino)-5H-pyrrolo[3,4-d]pyrimidin-7(6H)-one] | 6300 nM
CC(=O)N1CCN(c2nc3c(c(N(C)Cc4ccc5ccccc5n4)n2)CN(C(C)C)C3=O)CC1 [Example 249, 2-(4-acetylpiperazin-1-yl)-6-isopropyl-4-(methyl(quinolin-2-ylmethyl)amino)-5H-pyrrolo[3,4-d]pyrimidin-7(6H)-one] | 6000 nM
CC(=O)N1CCN(c2nc(N[C@@H](C)c3ccc(OC(CF)CF)cc3)c3c(n2)C(=O)N(C(C)C)C3)CC1 [Example 251, (S)-2-(4-acetylpiperazin-1-yl)-4-(1-(4-(1,3-difluoropropan-2-yloxy)phenyl)ethylamino)-6-isopropyl-5H-pyrrolo[3,4-d]pyrimidin-7(6H)-one] | 5200 nM
CC(=O)N1CCN(c2nc3c(c(N(Cc4cc5ccccc5cn4)CC(F)(F)F)n2)CN(C(C)C)C3=O)CC1 [Example 264, 2-(4-acetylpiperazin-1-yl)-6-isopropyl-4-((isoquinolin-3-ylmethyl)(2,2,2-trifluoroethyl)amino)-5H-pyrrolo[3,4-d]pyrimidin-7(6H)-one] | 2900 nM
CC(=O)N1CCN(c2nc3c(c(N4CCCCC4Cc4ccccc4)n2)CN(C(C)C)C3=O)CC1 (stereo not shown) [Example 266, 4-(4-acetylpiperazin-1-yl)-2-(2-benzyl-1-piperidyl)-8-propan-2-yl-3,5,8-triazabicyclo[4.3.0]nona-1,3,5-trien-7-one] | 1000 nM
CC(=O)N1CCN(c2nc3c(c(N4CCCC4c4cccc(C)c4)n2)CN(C(C)C)C3=O)CC1 (stereo not shown) [Example 269, 4-(4-acetylpiperazin-1-yl)-2-[2-(3-methylphenyl)pyrrolidin-1-yl]-8-propan-2-yl-3,5,8-triazabicyclo[4.3.0]nona-2,4,10-trien-7-one] | 740 nM
CC(=O)N1CCN(c2nc3c(c(N4CCCC4CCc4ccccc4)n2)CN(C(C)C)C3=O)CC1 (stereo not shown) [Example 271, 4-(4-acetylpiperazin-1-yl)-2-(2-phenethylpyrrolidin-1-yl)-8-propan-2-yl-3,5,8-triazabicyclo[4.3.0]nona-1,3,5-trien-7-one] | 870 nM
CC(=O)N1CCN(c2nc3c(c(N4CCC4Cc4ccccc4)n2)CN(C(C)C)C3=O)CC1 (stereo not shown) [Example 273, 4-(4-acetylpiperazin-1-yl)-2-(2-benzylazetidin-1-yl)-8-propan-2-yl-3,5,8-triazabicyclo[4.3.0]nona-1,3,5-trien-7-one] | 3200 nM
CC(=O)N1CCN(c2nc(NCc3nc(C4CCCC4)no3)c3c(n2)C(=O)N(C(C)C)C3)CC1 [Example 276, 4-(4-acetylpiperazin-1-yl)-2-[(3-cyclopentyl-1,2,4-oxadiazol-5-yl)methylamino]-8-propan-2-yl-3,5,8-triazabicyclo[4.3.0]nona-1,3,5-trien-7-one] | 590 nM
CC(=O)N1CCN(c2nc3c(c(N4CCC[C@@H]4C(=O)OC(C)(C)C)n2)CN(C(C)C)C3=O)CC1 [Example 277, tert-butyl (2R)-1-[4-(4-acetylpiperazin-1-yl)-7-oxo-8-propan-2-yl-3,5,8-triazabicyclo[4.3.0]nona-1,3,5-trien-2-yl]pyrrolidine-2-carboxylate] | 7700 nM
CC(=O)N1CCN(c2nc(NCc3noc(C4CCC4)n3)c3c(n2)C(=O)N(C(C)C)C3)CC1 [Example 278, 4-(4-acetylpiperazin-1-yl)-2-[(5-cyclobutyl-1,2,4-oxadiazol-3-yl)methylamino]-8-propan-2-yl-3,5,8-triazabicyclo[4.3.0]nona-1,3,5-trien-7-one] | 750 nM
CC(=O)N1CCN(c2nc3c(c(N4CCC[C@@H]4C(=O)N4CCc5ccccc54)n2)CN(C(C)C)C3=O)CC1 [Example 279, 4-(4-acetylpiperazin-1-yl)-2-[(2R)-2-(2,3-dihydroindole-1-carbonyl)pyrrolidin-1-yl]-8-propan-2-yl-3,5,8-triazabicyclo[4.3.0]nona-1,3,5-trien-7-one] | 1800 nM
CC(=O)N1CCN(c2nc3c(c(N4CCCC4c4nc(-c5ccccc5)no4)n2)CN(C(C)C)C3=O)CC1 (stereo not shown) [Example 280, 4-(4-acetylpiperazin-1-yl)-2-[2-(3-phenyl-1,2,4-oxadiazol-5-yl)pyrrolidin-1-yl]-8-propan-2-yl-3,5,8-triazabicyclo[4.3.0]nona-1,3,5-trien-7-one] | 5100 nM
COc1ccccc1CC1CCCN1c1nc(N2CCN(C(C)=O)CC2)nc2c1CN(C(C)C)C2=O (stereo not shown) [Example 290, 2-(4-acetylpiperazin-1-yl)-6-isopropyl-4-[2-[(2-methoxyphenyl)methyl]pyrrolidin-1-yl]-5H-pyrrolo[3,4-d]pyrimidin-7-one] | 2000 nM

These reach a lower IC50. Values come first.

IC50 | Structure (SMILES)
490 nM | COc1cccc(CC2CCCN2c2nc(N3CCN(C(C)=O)CC3)nc3c2CN(C(C)C)C3=O)c1 (stereo not shown) [Example 291, 2-(4-acetylpiperazin-1-yl)-6-isopropyl-4-[2-[(3-methoxyphenyl)methyl]pyrrolidin-1-yl]-5H-pyrrolo[3,4-d]pyrimidin-7-one]
480 nM | CC(=O)N1CCN(c2nc3c(c(N4CCCC4c4ccc(N(C)C)cc4)n2)CN(C(C)C)C3=O)CC1 (stereo not shown) [Example 267, 4-(4-acetylpiperazin-1-yl)-2-[2-(4-dimethylaminophenyl)pyrrolidin-1-yl]-8-propan-2-yl-3,5,8-triazabicyclo[4.3.0]nona-1,3,5-trien-7-one]
430 nM | CC(=O)N1CCN(c2nc(N[C@H](C)c3ccc(OC(CF)CF)cc3)c3c(n2)C(=O)N(C(C)C)C3)CC1 [Example 250, (R)-2-(4-acetylpiperazin-1-yl)-4-(1-(4-(1,3-difluoropropan-2-yloxy)phenyl)ethylamino)-6-isopropyl-5H-pyrrolo[3,4-d]pyrimidin-7(6H)-one]
330 nM | CCOc1ccc(CC2CCCN2c2nc(N3CCN(C(C)=O)CC3)nc3c2CN(C(C)C)C3=O)cc1 (stereo not shown) [Example 289, 2-(4-acetylpiperazin-1-yl)-4-[2-[(4-ethoxyphenyl)methyl]pyrrolidin-1-yl]-6-isopropyl-5H-pyrrolo[4,3-e]pyrimidin-7-one]
75 nM | CC(=O)N1CCN(c2nc3c(c(N(Cc4cc5ccccc5cn4)C(C)C)n2)CN(C(C)C)C3=O)CC1 [Example 254, 2-(4-acetylpiperazin-1-yl)-6-isopropyl-4-(isopropyl(isoquinolin-3-ylmethyl)amino)-5H-pyrrolo[3,4-d]pyrimidin-7(6H)-one]
68 nM | CC(=O)N1CCN(c2nc(NCc3cc4ccccc4nc3C)c3c(n2)C(=O)N(C(C)C)C3)CC1 [Example 241, 2-(4-acetylpiperazin-1-yl)-6-isopropyl-4-((2-methylquinolin-3-yl)methylamino)-5H-pyrrolo[3,4-d]pyrimidin-7(6H)-one]
46 nM | CC(=O)N1CCN(c2nc3c(c(N(Cc4cc5ccccc5cn4)CC(F)F)n2)CN(C(C)C)C3=O)CC1 [Example 256, 2-(4-acetylpiperazin-1-yl)-4-((2,2-difluoroethyl)(isoquinolin-3-ylmethyl)amino)-6-isopropyl-5H-pyrrolo[3,4-d]pyrimidin-7(6H)-one]
